This passage reports IC50 results from patent publication US20230295130A1, “COMPOUND USEFUL AS CDK7 KINASE INHIBITOR AND USE THEREOF” (TYK MEDICINES, INC., priority 2020, published 2023).

What all share (assay): Enzyme activity test, mobility shift assay (Table 1)
Common to all, as to format: biochemical

For one test, the target named is CDK2/Cyclin El (Homo sapiens (Human), UniProt P24941). Conditions: 2 mM ATP; read-out: CDK2 kinase IC50. The method, then: (§1) The compound powder was dissolved in 100% DMSO to prepare a 10 mM storage solution. The storage solution was further diluted to 0.5 mM as the initial concentration, and continuously diluted 3 times to obtain 10 compound solutions with different concentrations. The compound and enzyme were pre-incubated for 0 minutes and 60 minutes, respectively, using duplicate detection.
(§2) was used as a positive control, and Mobility shift assay method was used to detect CDK kinase (such as CDK7, CDK9, CDK12 and CDK2) activity of the compounds.

The next test concerns the target CDK9/Cyclin Tl (Homo sapiens (Human), UniProt P50750). Conditions: 2 mM ATP; read-out: CDK9 kinase IC50. How it is done: as §1, §2
Test [1] concerns the target CDK12 (aa686-1082)/Cyclin K (Homo sapiens (Human), UniProt Q9NYV4). Conditions: 2 mM ATP; read-out: CDK12 kinase IC50. The method, then:
The compound powder was dissolved in 100% DMSO to prepare a 10 mM storage solution. The storage solution was further diluted to 0.5 mM as the initial concentration, and continuously diluted 3 times to obtain 10 compound solutions with different concentrations. The compound and enzyme were pre-incubated for 0 minutes and 60 minutes, respectively, using duplicate detection. Compound Staurosporine having a structural formula of
as §2

Test [2] addresses CDK7/Cyclin H/MAT1 kinase (Homo sapiens (Human), UniProt P50613). Particulars: 2 mM ATP; pre-incubated 0 and 60 minutes. How it is done:
IC50 values of the compounds for CDK7 kinase were detected in Wuxi Biortus Biosciences Co. Ltd.
as §1, §2

The structures appear in SMILES notation.

Chain of CDK12 (aa686-1082)/Cyclin K (Q9NYV4 686-1082): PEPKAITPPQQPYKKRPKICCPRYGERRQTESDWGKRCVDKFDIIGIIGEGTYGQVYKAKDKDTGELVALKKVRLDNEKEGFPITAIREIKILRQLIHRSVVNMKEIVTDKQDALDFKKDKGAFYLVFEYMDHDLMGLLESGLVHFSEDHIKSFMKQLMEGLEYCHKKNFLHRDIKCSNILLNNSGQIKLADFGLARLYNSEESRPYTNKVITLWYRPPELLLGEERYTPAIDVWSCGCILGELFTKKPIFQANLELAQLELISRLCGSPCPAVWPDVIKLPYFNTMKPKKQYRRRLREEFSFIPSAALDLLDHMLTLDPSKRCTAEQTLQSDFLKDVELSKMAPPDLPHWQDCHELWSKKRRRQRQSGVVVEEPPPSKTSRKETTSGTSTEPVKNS
Chain of CDK12 (aa686-1082)/Cyclin K (O75909 whole entry partner, the tested form may be a part): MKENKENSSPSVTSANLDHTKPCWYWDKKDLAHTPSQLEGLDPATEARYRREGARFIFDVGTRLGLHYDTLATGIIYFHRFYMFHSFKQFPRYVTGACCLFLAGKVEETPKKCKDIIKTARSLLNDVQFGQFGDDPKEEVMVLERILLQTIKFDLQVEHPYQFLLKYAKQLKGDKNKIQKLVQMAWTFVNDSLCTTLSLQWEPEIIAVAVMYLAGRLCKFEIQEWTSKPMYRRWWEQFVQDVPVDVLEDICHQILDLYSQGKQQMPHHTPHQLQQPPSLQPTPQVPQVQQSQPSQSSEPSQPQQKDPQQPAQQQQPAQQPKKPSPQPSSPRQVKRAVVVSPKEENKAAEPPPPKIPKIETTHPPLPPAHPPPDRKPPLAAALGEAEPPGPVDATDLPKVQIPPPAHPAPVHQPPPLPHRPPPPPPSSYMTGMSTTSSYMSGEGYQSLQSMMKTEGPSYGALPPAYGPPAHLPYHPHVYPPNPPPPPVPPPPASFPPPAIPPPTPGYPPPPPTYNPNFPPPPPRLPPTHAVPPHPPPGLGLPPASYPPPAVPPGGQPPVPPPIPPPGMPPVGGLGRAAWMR
Chain of CDK7/Cyclin H/MAT1 kinase (P50613 whole entry): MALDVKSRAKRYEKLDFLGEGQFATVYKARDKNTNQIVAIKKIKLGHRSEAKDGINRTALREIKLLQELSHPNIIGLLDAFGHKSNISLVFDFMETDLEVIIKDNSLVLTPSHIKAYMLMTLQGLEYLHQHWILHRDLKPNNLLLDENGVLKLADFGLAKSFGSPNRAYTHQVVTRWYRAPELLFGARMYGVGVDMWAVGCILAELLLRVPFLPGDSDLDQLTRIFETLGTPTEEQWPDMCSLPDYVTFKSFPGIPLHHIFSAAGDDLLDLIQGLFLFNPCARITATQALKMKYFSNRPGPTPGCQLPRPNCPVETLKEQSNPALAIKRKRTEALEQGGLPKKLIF
Chain of CDK7/Cyclin H/MAT1 kinase (P51946 whole entry partner): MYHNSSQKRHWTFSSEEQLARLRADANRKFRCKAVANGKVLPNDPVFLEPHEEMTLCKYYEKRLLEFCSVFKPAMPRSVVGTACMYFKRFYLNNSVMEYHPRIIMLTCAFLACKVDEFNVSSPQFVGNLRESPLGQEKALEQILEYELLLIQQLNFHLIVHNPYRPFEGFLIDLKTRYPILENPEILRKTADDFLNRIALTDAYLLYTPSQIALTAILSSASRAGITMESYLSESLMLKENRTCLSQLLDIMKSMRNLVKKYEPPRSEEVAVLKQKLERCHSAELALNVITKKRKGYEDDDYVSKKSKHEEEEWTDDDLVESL
Chain of CDK7/Cyclin H/MAT1 kinase (P51948 whole entry partner): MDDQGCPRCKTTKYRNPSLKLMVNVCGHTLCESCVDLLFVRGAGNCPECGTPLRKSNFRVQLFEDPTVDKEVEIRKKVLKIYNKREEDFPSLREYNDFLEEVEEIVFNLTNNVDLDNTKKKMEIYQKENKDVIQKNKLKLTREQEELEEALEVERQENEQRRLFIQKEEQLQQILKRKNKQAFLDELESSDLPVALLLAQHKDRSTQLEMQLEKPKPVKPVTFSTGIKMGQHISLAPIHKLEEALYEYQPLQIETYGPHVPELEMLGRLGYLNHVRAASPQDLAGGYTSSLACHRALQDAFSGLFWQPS
Chain of CDK9/Cyclin Tl (P50750 whole entry, the tested form may be a part): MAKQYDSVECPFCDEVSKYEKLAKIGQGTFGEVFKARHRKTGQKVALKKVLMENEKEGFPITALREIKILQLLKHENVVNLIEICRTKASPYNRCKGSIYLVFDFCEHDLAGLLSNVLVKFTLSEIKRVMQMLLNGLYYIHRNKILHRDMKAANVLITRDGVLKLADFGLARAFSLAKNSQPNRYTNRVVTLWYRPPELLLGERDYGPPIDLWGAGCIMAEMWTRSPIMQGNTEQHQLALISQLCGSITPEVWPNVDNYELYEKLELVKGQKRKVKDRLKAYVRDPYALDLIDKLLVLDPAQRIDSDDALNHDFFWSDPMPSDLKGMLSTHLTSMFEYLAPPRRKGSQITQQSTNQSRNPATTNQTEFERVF
Chain of CDK9/Cyclin Tl (O60563 whole entry partner, the tested form may be a part): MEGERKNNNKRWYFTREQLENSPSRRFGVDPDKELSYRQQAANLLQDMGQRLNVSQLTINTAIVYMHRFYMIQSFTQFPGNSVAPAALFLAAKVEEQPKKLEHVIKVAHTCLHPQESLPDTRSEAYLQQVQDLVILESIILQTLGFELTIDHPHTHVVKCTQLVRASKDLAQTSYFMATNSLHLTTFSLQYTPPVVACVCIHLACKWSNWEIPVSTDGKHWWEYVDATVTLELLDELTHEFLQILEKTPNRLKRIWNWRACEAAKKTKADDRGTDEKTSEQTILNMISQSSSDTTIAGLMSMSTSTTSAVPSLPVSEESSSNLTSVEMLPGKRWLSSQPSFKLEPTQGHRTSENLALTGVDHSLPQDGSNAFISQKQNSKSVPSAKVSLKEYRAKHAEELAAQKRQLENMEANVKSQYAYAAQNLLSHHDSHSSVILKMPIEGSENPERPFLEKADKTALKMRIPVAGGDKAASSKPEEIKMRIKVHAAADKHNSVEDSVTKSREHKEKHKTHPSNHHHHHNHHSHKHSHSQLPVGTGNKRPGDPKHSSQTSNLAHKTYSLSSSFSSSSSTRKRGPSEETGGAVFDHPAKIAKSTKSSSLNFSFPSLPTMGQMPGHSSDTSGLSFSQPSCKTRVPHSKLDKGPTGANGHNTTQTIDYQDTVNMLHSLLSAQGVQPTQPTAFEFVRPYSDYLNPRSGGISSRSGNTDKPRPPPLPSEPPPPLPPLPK

Usually IC50 stands for the midpoint of a concentration-inhibition curve. In the case of `COC(=O)Nc1ccc2c(-c3nc(N[C@H]4CCC(C)(C)NC4)ncc3C(F)(F)F)c[nH]c2c1S(=O)(=O)C(C)C` [Example T-64], the IC50 is greater than 500 nM at CDK2/Cyclin El, greater than 500 nM at CDK9/Cyclin Tl, greater than 500 nM in test [1] and less than 50 nM in test [2].

For `COC(=O)Nc1ccc2c(-c3nc(N[C@H]4CCCNC4)ncc3C(F)(F)F)c[nH]c2c1[S+]([O-])C(C)C` (stereo partly drawn) [Example T-65], the IC50 on CDK2/Cyclin El was greater than 500 nM; at CDK9/Cyclin Tl, greater than 500 nM; in test [1], greater than 500 nM; in test [2] it was less than 50 nM.

For `COC(=O)Nc1ccc2c(-c3nc(N[C@H]4CCCNC4)ncc3C(F)(F)F)c[nH]c2c1SC(C)C` [Example T-66], the IC50 at CDK2/Cyclin El was greater than 500 nM; on CDK9/Cyclin Tl, greater than 500 nM; in test [1] it was greater than 500 nM; in test [2], less than 50 nM.

Regarding `COC(=O)Nc1ccc2c(-c3nc(N[C@H]4CCC[C@@H]4N)ncc3C(F)(F)F)c[nH]c2c1Br` [Example T-67], the half-maximal inhibitory concentration (IC50) on CDK2/Cyclin El was greater than 500 nM; on CDK9/Cyclin Tl it was greater than 500 nM; in test [1], greater than 500 nM; in test [2], less than 50 nM.

For `COC(=O)Nc1ccc2c(-c3nc(N[C@H]4CCCNC4)ncc3C(F)(F)F)c[nH]c2c1-c1cnn(C)c1` [Example T-68], the IC50 was greater than 500 nM at CDK2/Cyclin El, greater than 500 nM at CDK9/Cyclin Tl, greater than 500 nM in test [1] and less than 50 nM in test [2].

Consider `COC(=O)Nc1ccc2c(-c3nc(N[C@H]4CCCNC4)ncc3C(F)(F)F)c[nH]c2c1C(C)C` [Example T-69], for which the half-inhibitory concentration (IC50) at CDK2/Cyclin El was greater than 500 nM; on CDK9/Cyclin Tl, greater than 500 nM; in test [1] it was greater than 500 nM; in test [2], less than 50 nM.

Consider `COC(=O)Nc1ccc2c(-c3nc(N[C@H]4CCCNC4)ncc3Br)c[nH]c2c1Br` [Example T-75], for which the IC50 on CDK2/Cyclin El was greater than 500 nM; at CDK9/Cyclin Tl, greater than 500 nM; in test [1], greater than 500 nM; in test [2], less than 50 nM.

With `COC(=O)Nc1ccc2c(-c3nc(N[C@H]4CCC(C)(C)NC4)ncc3C(F)(F)F)c[nH]c2c1Cl` [Example T-80], the IC50 was greater than 500 nM on CDK2/Cyclin El, greater than 500 nM on CDK9/Cyclin Tl, greater than 500 nM in test [1] and less than 50 nM in test [2].

Regarding `CCOC(=O)Nc1ccc2c(-c3nc(N[C@H]4CCC(C)(C)NC4)ncc3C(F)(F)F)c[nH]c2c1Cl` [Example T-82], the IC50 at CDK2/Cyclin El is greater than 500 nM; on CDK9/Cyclin Tl it was greater than 500 nM; in test [1] it was greater than 500 nM; in test [2], less than 50 nM.

For the compound `COC(=O)Nc1ccc2c(-c3nc(N[C@H]4CCCNC4)ncc3C(F)(F)F)c[nH]c2c1C1COC1` [Example T-84], the IC50 is greater than 500 nM on CDK2/Cyclin El, greater than 500 nM at CDK9/Cyclin Tl, greater than 500 nM in test [1] and less than 50 nM in test [2].

For the compound `COC(=O)Nc1ccc2c(-c3nc(N[C@H]4CCC(C)(C)NC4)ncc3Cl)c[nH]c2c1OCC(F)(F)F` [Example T-85], the IC50 is greater than 500 nM at CDK2/Cyclin El, greater than 500 nM at CDK9/Cyclin Tl, greater than 500 nM in test [1] and less than 50 nM in test [2].

For `COC(=O)Nc1ccc2c(-c3nc(N[C@H]4CCC(C)(C)NC4)ncc3Cl)c[nH]c2c1CC(F)(F)F` [Example T-86], the IC50 at CDK2/Cyclin El is greater than 500 nM; on CDK9/Cyclin Tl, greater than 500 nM; in test [1] it was greater than 500 nM; in test [2], less than 50 nM.

Consider `COC(=O)Nc1ccc2c(-c3nc(N[C@H]4CCCNC4)ncc3Cl)c[nH]c2c1C(F)(F)F` [Example T-88], for which the IC50 is greater than 500 nM on CDK2/Cyclin El, greater than 500 nM at CDK9/Cyclin Tl, greater than 500 nM in test [1] and less than 50 nM in test [2].

Consider `COC(=O)Nc1ccc2c(-c3nc(N[C@H]4CCC(C)(C)NC4)ncc3Cl)c[nH]c2c1OC(F)(F)F` [Example T-96], for which the IC50 on CDK2/Cyclin El was greater than 500 nM; on CDK9/Cyclin Tl, greater than 500 nM; in test [1] it was greater than 500 nM; in test [2], less than 50 nM.

With `COC(=O)Nc1ccc2c(-c3nc(N[C@H]4CCC5(CC5)NC4)ncc3C(F)(F)F)c[nH]c2c1C(F)(F)F` [Example T-100], the IC50 on CDK2/Cyclin El was greater than 500 nM; at CDK9/Cyclin Tl, greater than 500 nM; in test [1], greater than 500 nM; in test [2], less than 50 nM.

For the compound `COC(=O)N(C)c1ccc2c(-c3nc(N[C@H]4CCCNC4)ncc3C(F)(F)F)c[nH]c2c1Br` [Example T-102], the IC50 at CDK2/Cyclin El was greater than 500 nM; on CDK9/Cyclin Tl, greater than 500 nM; in test [1], greater than 500 nM; in test [2], less than 50 nM.

Turning to `COC(=O)Nc1ccc2c(-c3nc(N[C@H]4CCC(C)(C)NC4)ncc3C(F)(F)F)c[nH]c2c1C1CC1(F)F` (stereo partly drawn) [Example T-105], the IC50 on CDK2/Cyclin El is greater than 500 nM; at CDK9/Cyclin Tl it was greater than 500 nM; in test [1], greater than 500 nM; in test [2], less than 50 nM.

As to `COC(=O)Nc1ccc2c(-c3nc(N[C@H]4CCC(C)(C)NC4)ncc3C(F)(F)F)c[nH]c2c1C1CC(F)(F)C1` [Example T-106], the IC50 at CDK2/Cyclin El is greater than 500 nM; on CDK9/Cyclin Tl it was greater than 500 nM; in test [1] it was greater than 500 nM; in test [2] it was less than 50 nM.

Regarding `COC(=O)Nc1ccc2c(-c3nc(N[C@H]4CCC(C)(C)NC4)ncc3C(F)(F)F)c[nH]c2c1C(F)F` [Example T-107], the IC50 on CDK2/Cyclin El is greater than 500 nM; on CDK9/Cyclin Tl it was greater than 500 nM; in test [1] it was greater than 500 nM; in test [2], less than 50 nM.

For the compound `COC(=O)Nc1ccc2c(-c3nc(N[C@H]4CCC(C)(C)NC4)ncc3C(F)(F)F)c[nH]c2c1OC(F)F` [Example T-108], the IC50 at CDK2/Cyclin El is greater than 500 nM; at CDK9/Cyclin Tl, greater than 500 nM; in test [1], greater than 500 nM; in test [2] it was less than 50 nM.

As to `COC(=O)Nc1ccc2c(-c3nc(N[C@H]4CCC(C)(C)NC4)ncc3C(F)(F)F)c[nH]c2c1OC(F)(F)F` [Example T-109], the concentration for half-maximal inhibition (IC50) was greater than 500 nM on CDK2/Cyclin El, greater than 500 nM at CDK9/Cyclin Tl, greater than 500 nM in test [1] and less than 50 nM in test [2].

With `CCOC(=O)Nc1ccc2c(-c3nc(N[C@H]4CCCNC4)ncc3C(F)(F)F)c[nH]c2c1C1CC1` [Example T-127], the IC50 at CDK2/Cyclin El is greater than 500 nM; at CDK9/Cyclin Tl, greater than 500 nM; in test [1], greater than 500 nM; in test [2], less than 50 nM.

As for `COC(=O)Nc1ccc2c(-c3nc(N[C@H]4CCC(C)NC4)ncc3C(F)(F)F)c[nH]c2c1C1CC1` (stereo partly drawn) [Example T-129], the IC50 on CDK2/Cyclin El is greater than 500 nM; on CDK9/Cyclin Tl it was greater than 500 nM; in test [1] it was greater than 500 nM; in test [2], 50 to 500 nM.

Consider `COC(=O)Nc1ccc2c(-c3nc(N[C@H]4CC[C@@H](C)NC4)ncc3C(F)(F)F)c[nH]c2c1C1CC1` [Example T-130], for which the IC50 at CDK2/Cyclin El was greater than 500 nM; at CDK9/Cyclin Tl, greater than 500 nM; in test [1] it was greater than 500 nM; in test [2] it was 50 to 500 nM.

For the compound `COC(=O)Nc1ccc2c(-c3nc(N[C@H]4CC[C@H](C)NC4)ncc3C(F)(F)F)c[nH]c2c1C1CC1` [Example T-131], the IC50 at CDK2/Cyclin El is greater than 500 nM; on CDK9/Cyclin Tl, greater than 500 nM; in test [1] it was greater than 500 nM; in test [2], 50 to 500 nM.

`COC(=O)Nc1ccc2c(-c3nc(N[C@H]4CCC(C)(C)NC4)ncc3C(F)(F)F)c[nH]c2c1C(C)=O` [Example T-134]: the IC50 on CDK2/Cyclin El is greater than 500 nM; on CDK9/Cyclin Tl, greater than 500 nM; in test [1] it was greater than 500 nM; in test [2] it was less than 50 nM.

For `COC(=O)Nc1ccc2c(-c3nc(N[C@H]4CCC(C)(C)NC4)ncc3C(F)(F)F)c[nH]c2c1C(C)(F)F` [Example T-136], the IC50 at CDK2/Cyclin El is greater than 500 nM; at CDK9/Cyclin Tl, greater than 500 nM; in test [1], greater than 500 nM; in test [2], less than 50 nM.

Regarding `COC(=O)Nc1ccc2c(-c3nc(N[C@H]4CCC5(CC5)NC4)ncc3C(F)(F)F)c[nH]c2c1C(C)(F)F` [Example T-137], the IC50 at CDK2/Cyclin El was greater than 500 nM; on CDK9/Cyclin Tl, greater than 500 nM; in test [1], greater than 500 nM; in test [2], less than 50 nM.

For `CCOc1c(NC(=O)OC)ccc2c(-c3nc(N[C@H]4CCCNC4)ncc3C(F)(F)F)c[nH]c12` [Example T-138], the IC50 at CDK2/Cyclin El was greater than 500 nM; on CDK9/Cyclin Tl, greater than 500 nM; in test [1], greater than 500 nM; in test [2], less than 50 nM.

On to `COC(=O)Nc1ccc2c(-c3nc(N[C@H]4CCCNC4)ncc3C(F)(F)F)c[nH]c2c1OCC(F)(F)F` [Example T-139], for which the IC50 on CDK2/Cyclin El was greater than 500 nM; on CDK9/Cyclin Tl it was greater than 500 nM; in test [1], greater than 500 nM; in test [2] it was less than 50 nM.

On to `COC(=O)Nc1ccc2c(-c3nc(N[C@H]4CC[C@@H](C)NC4)ncc3C(F)(F)F)c[nH]c2c1OC` [Example T-140], for which the IC50 at CDK2/Cyclin El is greater than 500 nM; on CDK9/Cyclin Tl, greater than 500 nM; in test [1], greater than 500 nM; in test [2] it was 50 to 500 nM.

Take `COC(=O)Nc1ccc2c(-c3nc(N[C@H]4CC[C@@H](C)NC4)ncc3C(F)(F)F)c[nH]c2c1Br` [Example T-143]: the IC50 on CDK2/Cyclin El is greater than 500 nM; on CDK9/Cyclin Tl, greater than 500 nM; in test [1] it was greater than 500 nM; in test [2], 50 to 500 nM.

In the case of `COC(=O)Nc1ccc2c(-c3nc(N[C@H]4CC[C@@H](C)NC4)ncc3C(F)(F)F)c[nH]c2c1Cl` [Example T-146], the IC50 was greater than 500 nM on CDK2/Cyclin El, greater than 500 nM at CDK9/Cyclin Tl, greater than 500 nM in test [1] and 50 to 500 nM in test [2].
